Test results as given in patent publication US8946268B2, “Modulators of HEC1 activity and methods therefor” (Taivex Therapeutics, Inc., priority 2010, dated 2015).

Key:
Format in all cases: cell-based
Hela = experiment: Antiproliferative activity (MTS assay), Hela; conditions: Hela cells
Method: (§1) Antiproliferative effect is expressed as IC50 values in microMolar final concentration.
(§2) Cells were grown at 37° C. in a humidified atmosphere with 5% CO2 and 95% air. Cells were seeded in 96 well tissue culture plates.
(§3) Compound treatment started after overnight incubation of cells (TO). […] Compound was added to the plate in triplicate wells, and the plates were then incubated for 96 hours. DMSO (compounds diluents) was also included and added to the plate in control wells. Cell viability was then determined by MTS assay using CellTiter 96® AQueous non-radioactive cell proliferation assay system (Promega). A plate reader (Molecular Devices, Vmax) was used to read the optical densities, and the results were used to deduce concentration-response curves. […] The results were analyzed using linear regression software (GraphPad Prism 5; GraphPad Software Inc.).
(§4) The GI50 values (growth inhibitory activity) were determined to emphasize on the correction for the cell count at time zero; thus, the % inhibition of test drug were: [1−(T−T0)/(C−T0)]×100; and these value were used to plot the concentration-response curves, and then analyzed with linear regression software (GraphPad Prism 5).

K562 = experiment: Antiproliferative activity (MTS assay), K562; conditions: K562 cells
Method: as §1, §2, §3, §4

MDA-MB-468 = experiment: Antiproliferative activity (MTS assay), MDA-MB-468; conditions: MDA-MB-468 cells
Method: as §1, §2, §3, §4

MDA-MB-231 = experiment: Antiproliferative activity (MTS assay), MDA-MB-231; conditions: MDA-MB-231 cells
Method: as §1, §2, §3, §4

Compound | IC50 (Hela; Homo sapiens, HeLa, 96 h) [µM] | IC50 (K562; Homo sapiens, K562, 96 h) [µM] | IC50 (MDA-MB-468; Homo sapiens, MDA-MB-468, 96 h) [µM] | IC50 (MDA-MB-231; Homo sapiens, MDA-MB-231, 96 h) [µM] | IC50 (Hela; 96 hours) [µM] | IC50 (K562; 96 hours) [µM] | IC50 (MDA-MB-468; 96 hours) [µM] | IC50 (MDA-MB-231; 96 hours) [µM]
Cc1cc(C)c(-c2csc(NC(=O)c3ccncc3)n2)c(C)n1 [Compound 44] | > 10 | 1.96 | 1.01 | 1.24 |  |  |  | 
Cc1cc(C)c(-c2csc(NC(=O)c3ccccn3)n2)c(C)n1 [Compound 45] | > 10 | > 10 | 7.68 | > 10 |  |  |  | 
Cc1cc(C)c(-c2csc(NC(=O)c3cccnc3)n2)c(C)n1 [Compound 46] | > 10 | > 10 | 7.19 | 7.41 |  |  |  | 
COc1cc(-c2csc(NC(=O)c3ccnnc3)n2)ccc1O [Compound 47] | > 10 | > 10 | > 10 | > 10 |  |  |  | 
COc1cc(-c2csc(NC(=O)c3ccncn3)n2)ccc1O [Compound 48] | > 10 | > 10 | > 10 | > 10 |  |  |  | 
COc1cc(-c2csc(NC(=O)c3ccsc3)n2)ccc1O [Compound 49] | > 10 | > 10 | > 10 | > 10 |  |  |  | 
COc1cc(-c2csc(NC(=O)c3cncs3)n2)ccc1O [Compound 50] | > 10 | > 10 | > 10 | > 10 |  |  |  | 
COc1cc(-c2csc(NC(=O)c3ccoc3)n2)ccc1O [Compound 51] | > 10 | > 10 | > 10 | > 10 |  |  |  | 
Cc1cc(-c2ccccc2)cc(C)c1-c1csc(NC(=O)c2ccncc2)n1 [Compound 53] | 0.48 | 0.62 | 0.48 | 0.43 |  |  |  | 
COc1ccc(-c2csc(NC(=O)c3ccnc(Cl)c3)n2)cc1 [Compound 54] | 5.92 | 6.65 | 6.95 | 4.56 |  |  |  | 
Cc1cc(Cl)cc(C)c1-c1csc(NC(=O)c2ccncc2)n1 [Compound 55] | 0.73 | 0.76 | 0.89 | 0.59 |  |  |  | 
N#Cc1ccc(C(=O)Nc2nc(-c3ccc(O)cc3)cs2)cc1 [Compound 56] | > 10 | > 10 | > 10 | > 10 |  |  |  | 
O=C(Nc1nc(-c2ccc(O)cc2)cs1)c1ccncc1 [Compound 57] | > 10 | > 10 | > 10 | > 10 |  |  |  | 
O=C(Nc1nc(-c2ccc(O)cc2)cs1)c1ccncn1 [Compound 58] | > 10 | > 10 | > 10 | > 10 |  |  |  | 
O=C(Nc1nc(-c2ccc(O)cc2)cs1)c1ccccn1 [Compound 59] | > 10 | > 10 | > 10 | > 10 |  |  |  | 
O=C(Nc1nc(-c2ccc(O)cc2)cs1)c1cccnc1 [Compound 60] | > 10 | > 10 | > 10 | > 10 |  |  |  | 
Cc1cc(O)ccc1-c1csc(NC(=O)c2ccc(C#N)cc2)n1 [Compound 61] | > 10 | > 10 | > 10 | > 10 |  |  |  | 
COc1c(F)cc(-c2csc(NC(=O)c3ccncc3)n2)cc1F [Compound 62] | > 10 | 7.16 | 5.45 | 4 |  |  |  | 
COc1ccc(-c2csc(NC(=O)c3ccnc(Cl)c3)n2)cc1F [Compound 63] | > 10 | > 10 | > 10 | > 10 |  |  |  | 

Compound | IC50 (Hela; Homo sapiens, HeLa, 96 h) [µM] | IC50 (K562; Homo sapiens, K562, 96 h) [µM] | IC50 (MDA-MB-468; Homo sapiens, MDA-MB-468, 96 h) [µM] | IC50 (MDA-MB-231; Homo sapiens, MDA-MB-231, 96 h) [µM] | IC50 (Hela; 96 hours) [µM] | IC50 (K562; 96 hours) [µM] | IC50 (MDA-MB-468; 96 hours) [µM] | IC50 (MDA-MB-231; 96 hours) [µM]
Cc1cc(C)c(-c2csc(NC(=O)c3ccnc(Cl)c3)n2)c(C)c1 [Compound 64] | 0.84 | 0.93 | 0.98 | 0.62 |  |  |  | 
CCOc1cc(C)c(-c2csc(NC(=O)c3ccnc(Cl)c3)n2)c(C)c1 [Compound 66] | 0.2 | 0.21 | 0.24 | 0.11 |  |  |  | 
COc1cc(C)c(-c2csc(NC(=O)Nc3ccncc3)n2)c(C)c1 [Compound 67] | > 10 | 0.82 | 0.78 | 0.57 |  |  |  | 
CC(=O)Nc1cc(C)c(-c2csc(NC(=O)Nc3ccncc3)n2)c(C)c1 [Compound 68] | 5.13 | 4.96 | 3.61 | 4.24 |  |  |  | 
CCOc1cc(C)c(-c2csc(NC(=O)c3ccnc(F)c3)n2)c(C)c1 [Compound 70] | 0.03 | 0.16 | 0.21 | 0.11 |  |  |  | 
COc1cc(C)c(-c2csc(NC(=O)c3cc[n+]([O-])cc3)n2)c(C)c1 [Compound 72] | 2.7 | 5.4 | 4.81 | 4.28 |  |  |  | 
CC(C)c1cc(C(C)C)c(-c2csc(NC(=O)c3ccncc3)n2)c(C(C)C)c1 [Compound 73] | > 10 | > 10 | > 10 | > 10 |  |  |  | 
CC(=O)Nc1cc(C)c(-c2csc(NC(=O)c3ccncc3)n2)c(C)c1 [Compound 74] | 1.59 | 2.13 | 1.27 | 1.46 |  |  |  | 
COc1cc(C)c(-c2csc(NC(=O)c3cncs3)n2)c(C)c1 [Compound 75] | 2.93 | 3.7 | 4.34 | 2.37 |  |  |  | 
O=C(Nc1nc(-c2c(F)cc(F)cc2F)cs1)c1ccncc1 [Compound 76] | 1.12 | 0.94 | 1.25 | 0.54 |  |  |  | 
Cc1cc(C)c(-c2csc(NC(=O)c3ccncc3F)n2)c(C)c1 [Compound 77] | 2.29 | 2.82 | 2.78 | 1.22 |  |  |  | 
Cc1cc(C)c(-c2csc(NC(=O)c3ccnc(Cl)c3)n2)c(C)c1 [Compound 81] |  |  |  |  | 0.86 | 0.79 | 0.82 | 0.72
Cc1cc(C)c(-c2csc(NC(=O)c3ccnc(N4CCOCC4)c3)n2)c(C)c1 [Compound 83] | 2.37 | 2.23 | 4.17 | 3.51 |  |  |  | 
Cc1cc(C)c(-c2csc(NC(=O)c3ccnc(N4CCN(C)CC4)c3)n2)c(C)c1 [Compound 84] | > 10 | > 10 | 28.8 | > 10 |  |  |  | 
COc1cc(C(=O)Nc2nc(-c3c(C)cc(C)cc3C)cs2)ccn1 [Compound 86] | 1.72 | 0.69 | 2.51 | 0.77 |  |  |  | 
COc1cc(C(=O)Nc2nc(-c3c(C)cc(C)cc3C)cs2)cc(Cl)n1 [Compound 87] | > 10 | > 10 | > 10 | > 10 |  |  |  | 
Cc1cc(C)c(-c2csc(NC(=O)c3cc(Cl)nc(Cl)c3)n2)c(C)c1 [Compound 88] | > 10 | 8.3 | 15.5 | 7.98 |  |  |  | 
CC(=O)Nc1cc(C(=O)Nc2nc(-c3c(C)cc(C)cc3C)cs2)ccn1 [Compound 89] | > 10 | > 10 | 8.2 | > 10 |  |  |  | 
Cc1cc(C)c(-c2csc(NC(=O)c3cc(F)nc(F)c3)n2)c(C)c1 [Compound 90] | 1.15 | 0.99 | 1.22 | 0.8 |  |  |  | 
